{
  "source": "patent US8802664B2",
  "about": "(Bioproject, priority 2010, dated 2014)",
  "data": [
    {"target": "T1, human H4 receptor (Homo sapiens, UniProt Q9H3N8)", "T1 construct": "expressed in transfected cells", "T1 sequence (Q9H3N8 whole entry)": "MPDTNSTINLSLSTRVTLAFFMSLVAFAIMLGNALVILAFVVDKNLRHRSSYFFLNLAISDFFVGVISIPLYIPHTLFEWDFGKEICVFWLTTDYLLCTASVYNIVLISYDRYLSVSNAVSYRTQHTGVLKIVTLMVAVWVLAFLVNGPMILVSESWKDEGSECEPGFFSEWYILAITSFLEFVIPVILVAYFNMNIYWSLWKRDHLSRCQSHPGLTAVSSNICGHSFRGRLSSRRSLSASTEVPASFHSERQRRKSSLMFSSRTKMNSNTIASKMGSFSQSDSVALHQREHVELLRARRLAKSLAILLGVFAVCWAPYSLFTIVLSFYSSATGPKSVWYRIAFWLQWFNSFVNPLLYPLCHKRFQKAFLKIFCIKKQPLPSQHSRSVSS", "experiment": "[3H]Histamine binding on membranes of CHO cells stably expressing human H4 receptor", "conditions": "not given", "procedure,_shortened": "(§1)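 Membranes from sub-confluent CHO-hH4 cells, 20 μg protein per well, were incubated in 50 mM Tris/HCl, 0.5 mM EDTA, pH 7.4. Nonspecific binding was defined with 10 μM JNJ 7777120. Bound radioactivity was collected on PEI-soaked GF/B filters and counted by liquid scintillation.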", "units": {"Ki or IC50 activity class": "nM"}, "values": [
      {"smiles": "CN1CCC(OC(c2cccc(OCc3ccccc3)c2)c2nc3ccccc3s2)CC1", "note": "(centres unmarked) [Example 45, 2-[(3-benzyloxyphenyl)(1-methylpiperidin-4-yloxy)methyl]benzothiazole]", "Ki or IC50 activity class": "< 30"},
      {"smiles": "CN1CCC(OC(c2cccc(OCc3cccc(N)c3)c2)c2nc3ccccc3s2)CC1", "note": "(centres unmarked) [Example 228, 3-{3-[benzothiazol-2-yl(1-methylpiperidin-4-yloxy)methyl]phenoxymethyl}phenylamine]", "Ki or IC50 activity class": "< 30"},
      {"smiles": "CSc1cccc(C(OC2CCN(C)CC2)c2nc3ccccc3s2)c1", "note": "(centres unmarked) [Example 201, 2-[(1-methylpiperidin-4-yloxy)(3-methylsulfanyl-phenyl)methyl]benzothiazole]", "Ki or IC50 activity class": "< 30"},
      {"smiles": "CCSc1cccc(C(OC2CCN(C)CC2)c2nc3ccccc3s2)c1", "note": "(centres unmarked) [Example 159, 2-[(3-ethylsulfanylphenyl)(1-methylpiperidin-4-yloxy)methyl]benzothiazole]", "Ki or IC50 activity class": "< 30"},
      {"smiles": "CN1CCC(OC(c2cccc(C3=CCN(C(=N)N)CC3)c2)c2nc3ccccc3[nH]2)CC1", "note": "(centres unmarked) [Example 353, 4-{3-[(1H-benzimidazol-2-yl)(1-methylpiperidin-4-yloxy)methyl]phenyl}-3,6-dihydro-2H-pyridine-1-carboxamidine]", "Ki or IC50 activity class": "< 300"},
      {"smiles": "CN1CCC(OC(c2cccc(SCCCNC(=N)N)c2)c2nc3ccccc3[nH]2)CC1", "note": "(centres unmarked) [Example 441, N-(3-{3-[(1H-benzimidazol-2-yl)(1-methylpiperidin-4-yloxy)methyl]phenylsulfanyl}propyl)guanidine]", "Ki or IC50 activity class": "< 30"},
      {"smiles": "CN1CCC(OC(c2cccc(SC[C@H]3C[C@H]3CN)c2)c2nc3ccccc3[nH]2)CC1", "note": "(some centres unmarked) [Example 494]", "Ki or IC50 activity class": "< 30"},
      {"smiles": "CN1CCC(OC(c2cccc(SCC3NC(N)=NC3=O)c2)c2nc3ccccc3[nH]2)CC1", "note": "(centres unmarked) [Example 479, 2-amino-5-{3-[(1H-benzimidazol-2-yl)(1-methylpiperidin-4-yloxy)methyl]phenylsulfanylmethyl}-1,5-dihydroimidazol-4-one]", "Ki or IC50 activity class": "< 30"},
      {"smiles": "CN1CCC(OC(c2cccc(-c3cccc(CO)c3)c2)c2nc3ccccc3[nH]2)CC1", "note": "(centres unmarked) [Example 86, {3′-[(1H-benzimidazol-2-yl)(1-methylpiperidin-4-yloxy)methyl]biphenyl-3-yl}methanol]", "Ki or IC50 activity class": "< 300"},
      {"smiles": "CN1CCC(OC(c2cccc(N3CCC(N(C)C)C3)c2)c2nc3ccccc3s2)CC1", "note": "(centres unmarked) [Example 484]", "Ki or IC50 activity class": "< 30"},
      {"smiles": "CN1CCC(OC(c2ccc3occc3c2)c2nc3ccccc3s2)CC1", "note": "(centres unmarked) [Example 46, 2-[benzofuran-5-yl(1-methylpiperidin-4-yloxy)methyl]benzothiazole]", "Ki or IC50 activity class": "< 300"},
      {"smiles": "CN1CCC(OC(c2cccc(CO)c2)c2nc3ccccc3s2)CC1", "note": "(centres unmarked) [Example 207, {3-[benzothiazol-2-yl(1-methylpiperidin-4-yloxy)methyl]phenyl}methanol]", "Ki or IC50 activity class": "< 1000"},
      {"smiles": "CN1CCC(OC(c2cccc(-c3cccc(N)c3)c2)c2nc3ccccc3[nH]2)CC1", "note": "(centres unmarked) [Example 87, 3′-[(1H-benzimidazol-2-yl)(1-methylpiperidin-4-yloxy)methyl]biphenyl-3-ylamine]", "Ki or IC50 activity class": "< 300"},
      {"smiles": "CN1CCC(OC(c2cccc(CCC(=O)OC(C)(C)C)c2)c2nc3ccccc3s2)CC1", "note": "(centres unmarked) [Example 208, 3-{3-[benzothiazol-2-yl(1-methylpiperidin-4-yloxy)methyl]phenyl}propionic acid tert-butyl ester]", "Ki or IC50 activity class": "< 300"},
      {"smiles": "CN1CCC(OC(c2cccc(OCCCN)c2)c2nc3ccccc3s2)CC1", "note": "(centres unmarked) [Example 311, 3-{3-[benzothiazol-2-yl(1-methylpiperidin-4-yloxy)methyl]phenoxy}propylamine]", "Ki or IC50 activity class": "< 300"},
      {"smiles": "CN1CCC(OC(c2cccc(OCCF)c2)c2nc3ccccc3[nH]2)CC1", "note": "(centres unmarked) [Example 476]", "Ki or IC50 activity class": "< 30"},
      {"smiles": "CN1CCC(OC(c2cccc(C#CCNC(=N)NC(=O)OC(C)(C)C)c2)c2nc3ccccc3[nH]2)CC1", "note": "(centres unmarked) [Example 336, N-tert-butoxycarbonyl-N′-(3-{3-[(1H-benzimidazol-2-yl)(1-methylpiperidin-4-yloxy)methyl]phenyl}prop-2-ynyl)guanidine]", "Ki or IC50 activity class": "< 300"},
      {"smiles": "CN1CCC(OC(c2cccc(CCCCN)c2)c2nc3ccccc3[nH]2)CC1", "note": "(centres unmarked) [Example 293, 4-{3-[(1H-benzimidazol-2-yl)(1-methylpiperidin-4-yloxy)methyl]phenyl}butylamine]", "Ki or IC50 activity class": "< 300"},
      {"smiles": "CN1CCC(OC(c2cccc(SCCN)c2)c2nc3ccccc3[nH]2)CC1", "note": "(centres unmarked) [Example 249, 2-{3-[(1H-benzimidazol-2-yl)(1-methylpiperidin-4-yloxy)methyl]phenylsulfanyl}ethylamine]", "Ki or IC50 activity class": "< 300"},
      {"smiles": "CC(=O)CCCOc1cccc(C(OC2CCN(C)CC2)c2nc3ccccc3s2)c1", "note": "(centres unmarked) [Example 186, 5-{3-[benzothiazol-2-yl(1-methylpiperidin-4-yloxy)methyl]phenoxy}pentan-2-one]", "Ki or IC50 activity class": "< 1000"},
      {"smiles": "CC(O)COCC#Cc1cccc(C(OC2CCN(C)CC2)c2nc3ccccc3s2)c1", "note": "(centres unmarked) [Example 276, 1-(3-{3-[benzothiazol-2-yl(1-methylpiperidin-4-yloxy)methyl]phenyl}prop-2-ynyloxy)-propan-2-ol]", "Ki or IC50 activity class": "< 30"},
      {"smiles": "CN1CCC(OC(c2cccc(OCCN3CCN(C(=O)OC(C)(C)C)CC3)c2)c2nc3ccccc3s2)CC1", "note": "(centres unmarked) [Example 328, 4-(2-{3-[benzothiazol-2-yl(1-methylpiperidin-4-yloxy)methyl]phenoxy}ethyl)piperazine-1-carboxylic acid tert-butyl ester]", "Ki or IC50 activity class": "< 30"},
      {"smiles": "CN1CCC(OC(c2cccc(-n3cccn3)c2)c2nc3ccccc3s2)CC1", "note": "(centres unmarked) [Example 147, 2-[(1-methylpiperidin-4-yloxy)(3-pyrazol-1-ylphenyl)methyl]benzothiazole]", "Ki or IC50 activity class": "< 300"},
      {"smiles": "CCOC(=O)NCCCCC#Cc1cccc(C(OC2CCN(C)CC2)c2nc3ccccc3n2C)c1", "note": "(centres unmarked) [Example 549, ethyl (6-{3-[(1-methyl-1H-benzimidazol-2-yl)(1-methylpiperidin-4-yloxy)methyl]phenyl}hex-5-ynyl)carbamate]", "Ki or IC50 activity class": "< 1000"},
      {"smiles": "CN1CCC(OC(c2cccc(SCCCCCO)c2)c2nc3ccccc3[nH]2)CC1", "note": "(centres unmarked) [Example 445, 5-{3-[(1H-benzimidazol-2-yl)(1-methylpiperidin-4-yloxy)methyl]phenylsulfanyl}pentan-1-ol]", "Ki or IC50 activity class": "< 300"},
      {"smiles": "CN1CCC(NC(c2cccc(OCc3ccccc3)c2)c2nc3ccccc3s2)CC1", "note": "(centres unmarked) [Example 101, [benzothiazol-2-yl(3-benzyloxyphenyl)methyl](1-methylpiperidin-4-yl)amine]", "Ki or IC50 activity class": "< 30"},
      {"smiles": "CN1CCC(OC(c2cccc(CCCCNC(=N)N)c2)c2nc3ccccc3[nH]2)CC1", "note": "(centres unmarked) [Example 308, N-(4-{3-[(1H-benzimidazol-2-yl)(1-methylpiperidin-4-yloxy)methyl]phenyl}butyl)guanidine]", "Ki or IC50 activity class": "< 300"},
      {"smiles": "CN1CCC(NC(c2cccc(OCc3ccc(F)cc3)c2)c2nc3ccccc3[nH]2)CC1", "note": "(centres unmarked) [Example 103, {(1H-benzimidazol-2-yl)[3-(4-fluorobenzyloxy)phenyl]methyl}(1-methylpiperidin-4-yl)amine]", "Ki or IC50 activity class": "< 300"},
      {"smiles": "CN1CCC(OC(c2cccc(Oc3cccnc3)c2)c2nc3ccccc3s2)CC1", "note": "(centres unmarked) [Example 448, 2-{(1-methylpiperidin-4-yloxy)[3-(pyridin-3-yloxy)phenyl]methyl}benzothiazole]", "Ki or IC50 activity class": "< 300"},
      {"smiles": "COC(=O)CSc1cccc(C(OC2CCN(C)CC2)c2nc3ccccc3[nH]2)c1", "note": "(centres unmarked) [Example 154, {3-[(1H-benzimidazol-2-yl)(1-methylpiperidin-4-yloxy)methyl]phenylsulfanyl}acetic acid methyl ester]", "Ki or IC50 activity class": "< 300"},
      {"smiles": "CC(C)Oc1cccc(C(NC2CCN(C)CC2)c2nc3ccccc3s2)c1", "note": "(centres unmarked) [Example 88, [benzothiazol-2-yl(3-isopropoxyphenyl)methyl](1-methylpiperidin-4-yl)amine]", "Ki or IC50 activity class": "< 30"},
      {"smiles": "COc1cccc(-c2cccc(C(OC3CCN(C)CC3)c3nc4ccccc4s3)c2)c1", "note": "(centres unmarked) [Example 99, 2-[(3′-methoxybiphenyl-3-yl)(1-methylpiperidin-4-yloxy)methyl]benzothiazole]", "Ki or IC50 activity class": "< 300"},
      {"smiles": "c1ccc2[nH]c(C(OC3CCNCC3)c3ccsc3)nc2c1", "note": "(centres unmarked) [Example 538]", "Ki or IC50 activity class": "< 1000"},
      {"smiles": "Cc1ccc(C(NC2CCN(C)CC2)c2nc3ccccc3s2)cc1", "note": "(centres unmarked) [Example 36, (benzothiazol-2-yl-p-tolylmethyl)(1-methylpiperidin-4-yl)amine]", "Ki or IC50 activity class": "< 300"},
      {"smiles": "Cc1ccc(C(OC2CCN(C)CC2)c2nc3ccccc3[nH]2)cc1", "note": "(single isomer, unassigned) [Example 252, 2-[(1-methylpiperidin-4-yloxy)-p-tolylmethyl]-1H-benzimidazole]", "Ki or IC50 activity class": "< 1000"},
      {"smiles": "CC(=O)NC1CCN(c2cccc(C(OC3CCN(C)CC3)c3nc4ccccc4s3)c2)C1", "note": "(centres unmarked) [Example 408, N-(1-{3-[benzothiazol-2-yl(1-methylpiperidin-4-yloxy)methyl]phenyl}pyrrolidin-3-yl)acetamide]", "Ki or IC50 activity class": "< 300"},
      {"smiles": "CN1CCC(OC(c2cccc(OCCCCN)c2)c2nc3ccccc3s2)CC1", "note": "(centres unmarked) [Example 301, 4-{3-[benzothiazol-2-yl(1-methylpiperidin-4-yloxy)methyl]phenoxy}butylamine]", "Ki or IC50 activity class": "< 30"},
      {"smiles": "CN1CCC(OC(c2cccc(OCCCl)c2)c2nc3ccccc3s2)CC1", "note": "(centres unmarked) [Example 354, 2-[[3-(2-Chloroethoxy)phenyl](1-methylpiperidin-4-yloxy)methyl]benzothiazole]", "Ki or IC50 activity class": "< 30"},
      {"smiles": "CN1CCC(OC(c2cccc(C#CCCCCN)c2)c2nc3ccccc3[nH]2)CC1", "note": "(centres unmarked) [Example 337, 6-{3-[(1H-benzimidazol-2-yl)(1-methylpiperidin-4-yloxy)methyl]phenyl}hex-5-ynylamine]", "Ki or IC50 activity class": "< 30"},
      {"smiles": "CN1CCC(NC(c2cccc(OCCC3=CCC4CC3C4(C)C)c2)c2nc3ccccc3[nH]2)CC1", "note": "(centres unmarked) [Example 181, ((1H-benzimidazol-2-yl)-{3-[2-(6,6-dimethyl-bicyclo[3.1.1]hept-2-en-2-yl)ethoxy]phenyl}methyl)(1-methylpiperidin-4-yl)amine]", "Ki or IC50 activity class": "< 30"}
    ]},
    {"target": "T1, human H4 receptor", "experiment": "[3H]Histamine binding on membranes of CHO cells stably expressing human H4 receptor", "conditions": "read-out: Activity (Ki or IC50)", "procedure,_shortened": "as §1", "units": {"Ki": "nM"}, "values": [
      {"smiles": "CN1CCC(OC(c2cccc(SCCNC(=N)NC(=O)C(C)(C)C)c2)c2nc3ccccc3[nH]2)CC1", "note": "(centres unmarked) [Example 446]", "Ki": "< 300"}
    ]}
  ]
}
